From patent US12134788B2, “Engineered prephenate dehydrogenases and arogenate dehydrogenases and methods of using the same” (Wisconsin Alumni Research Foundation, priority 2017, dated 2024)
Positions count from the first letter of the chain named.

Key:
[1] = target: T1, MtPDH (MtPDH1; Mt3g071980), Medicago truncatula prephenate dehydrogenase, wild type (Medicago truncatula, UniProt A0A0A0R205); assay: ADH and PDH assay: steady-state kinetics and Tyr inhibition, MtPDH wild type; format: biochemical
T1 sequence (A0A0A0R205 1-268): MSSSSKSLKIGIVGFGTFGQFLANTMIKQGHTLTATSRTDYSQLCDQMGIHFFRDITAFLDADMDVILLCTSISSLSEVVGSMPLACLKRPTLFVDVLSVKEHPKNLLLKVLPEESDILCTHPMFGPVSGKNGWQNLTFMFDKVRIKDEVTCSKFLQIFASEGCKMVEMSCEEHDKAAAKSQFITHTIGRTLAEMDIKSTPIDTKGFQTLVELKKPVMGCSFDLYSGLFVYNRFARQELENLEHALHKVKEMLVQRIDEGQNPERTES
Description: (§1) Kinetic parameters of purified recombinant proteins were determined from assays conducted at varying arogenate (19.5 μM-5 mM) and prephenate concentration (23.4 μM-6 mM). Standard assay conditions were 25 mM HEPES pH 7.6, 50 mM KCl and 10% (v/v) ethylene glycol, and 0.5 mM NADP^+ with varied substrate, concentrations. Reactions were initiated by addition of enzyme and incubated at 37° C. monitored every 10-15 seconds at […] using a microplate reader (Tecan Genios). Kinetic parameters were determined by fitting initial velocity data to the Michaelis-Menten equation using the Origin software (OriginLab).
Arogenate was prepared by enzymatic conversion of prephenate (Sigma-Aldrich) as previously reported^56. For Tyr inhibition assays, Tyr was dissolved in a slightly basic solution (0.025 N NaOH) due to solubility issues, thus the concentration of lysis buffer was increased to 500 mM HEPES final concentration to buffer against the changes by addition of Tyr in the reaction. […]

[2] = test system: Peanut PDH/ADH (AipaensisVYE8T), Arachis ipaensis, wild type; assay: ADH and PDH assay: steady-state kinetics and Tyr inhibition, peanut PDH/ADH; format: biochemical; conditions: 0-8 mM L-Tyr
Description: as §1
(§2) Arogenate was prepared by enzymatic conversion of prephenate (Sigma-Aldrich) as previously reported^56. For Tyr inhibition assays, Tyr was dissolved in a slightly basic solution (0.025 N NaOH) due to solubility issues, thus the concentration of lysis buffer was increased to 500 mM HEPES final concentration to buffer against the changes by addition of Tyr in the reaction. Reactions containing varying amounts of Tyr (10 μM-8 mM) with 0.5 mM NADP^+ and either 1 mM arogenate or 0.8 mM prephenate were monitored as above.

[3] = target: T2, GmncADH (Gm14g05990), soybean (Glycine max) noncanonical arogenate dehydrogenase, wild type (Glycine max, UniProt I1M7P5); assay: ADH and PDH assay: steady-state kinetics and Tyr inhibition, GmncADH wild type; format: biochemical
T2 construct: wild type
T2 sequence (I1M7P5 1-266): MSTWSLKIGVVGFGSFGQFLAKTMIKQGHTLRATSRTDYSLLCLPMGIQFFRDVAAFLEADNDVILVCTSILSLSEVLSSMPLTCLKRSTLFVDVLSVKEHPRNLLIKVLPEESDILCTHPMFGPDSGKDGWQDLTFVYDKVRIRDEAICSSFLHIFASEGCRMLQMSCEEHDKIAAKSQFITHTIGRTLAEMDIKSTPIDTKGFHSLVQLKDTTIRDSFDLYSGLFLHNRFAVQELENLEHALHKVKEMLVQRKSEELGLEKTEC
Description: as §1, §2

[4] = target: T3, MtncADH (Mt5g083530), Medicago truncatula noncanonical arogenate dehydrogenase, wild type (Medicago truncatula, UniProt A0A217FAR3); assay: ADH and PDH assay: steady-state kinetics and Tyr inhibition, MtncADH wild type; format: biochemical; conditions: for IC50: IC50^Tyr, 0.5 mM NADP^+
T3 construct: wild type
T3 sequence (A0A217FAR3 1-266): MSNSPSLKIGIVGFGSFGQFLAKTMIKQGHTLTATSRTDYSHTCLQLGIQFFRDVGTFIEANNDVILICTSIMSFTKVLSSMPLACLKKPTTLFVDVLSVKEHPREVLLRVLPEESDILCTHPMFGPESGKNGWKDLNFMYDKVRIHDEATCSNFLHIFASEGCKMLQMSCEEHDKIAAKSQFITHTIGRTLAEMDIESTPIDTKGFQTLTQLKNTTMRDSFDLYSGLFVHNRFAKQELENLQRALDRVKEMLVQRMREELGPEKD
Description: as §1, §2

[5] = target: T4, SolyncADH (Slycopersicum06g050630), tomato noncanonical arogenate dehydrogenase, wild type (Solanum lycopersicum, UniProt K4C5K7); assay: ADH and PDH assay: steady-state kinetics and Tyr inhibition, SolyncADH wild type; format: biochemical
T4 construct: wild type
Description: as §1, §2

[6] = target: Glycine max GmPDH1 variant M219T (Glycine max, UniProt I1MYY4, M219T); assay: ADH and PDH assay: steady-state kinetics and Tyr inhibition, GmPDH1 M219T; format: biochemical, Glycine max (soybean); conditions: 0-8 mM L-Tyr
Description: as §1, §2

[7] = target: T5, Glycine max GmPDH1 variant N222D, SEQ ID NO: 2 (Glycine max, UniProt I1MYY4, N222D); assay: ADH and PDH assay: steady-state kinetics and Tyr inhibition, GmPDH1 N222D; format: biochemical, Glycine max (soybean); conditions: IC50^Tyr, 0.5 mM NADP^+
T5 sequence (I1MYY4 1-271 N222D): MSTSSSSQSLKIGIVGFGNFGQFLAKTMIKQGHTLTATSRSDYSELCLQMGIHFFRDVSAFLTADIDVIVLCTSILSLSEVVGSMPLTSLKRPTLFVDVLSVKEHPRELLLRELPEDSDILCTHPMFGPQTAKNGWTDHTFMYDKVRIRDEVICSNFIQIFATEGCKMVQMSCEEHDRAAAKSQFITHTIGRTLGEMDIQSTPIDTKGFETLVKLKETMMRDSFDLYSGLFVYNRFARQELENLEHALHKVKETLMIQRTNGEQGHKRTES
Description: as §1, §2

[8] = target: Glycine max GmPDH1 variant M219T/N222D (Glycine max, UniProt I1MYY4, M219T/N222D); assay: ADH and PDH assay: steady-state kinetics and Tyr inhibition, GmPDH1 M219T/N222D; format: biochemical, Glycine max (soybean); conditions: IC50^Tyr, 0.5 mM NADP^+
Description: as §1, §2

[9] = target: T6, Medicago truncatula MtncADH variant D220C, SEQ ID NO: 10 (Medicago truncatula, UniProt A0A217FAR3, D220C); assay: ADH and PDH assay: steady-state kinetics and Tyr inhibition, MtncADH D220C; format: biochemical
T6 construct: D220C by site-directed mutagenesis
T6 sequence (A0A217FAR3 1-266 D220C): T3 sequence (A0A217FAR3 1-266) with D220C
Description: as §1, §2

[10] = target: T7, Solanum lycopersicum SolyncADH variant D224N (Solanum lycopersicum, UniProt K4C5K7, D224N); assay: ADH and PDH assay: steady-state kinetics and Tyr inhibition, SolyncADH D224N; format: biochemical, Solanum lycopersicum (tomato); conditions: versus wild-type; ADH activity, 0-8 mM Tyr
T7 construct: D224N by site-directed mutagenesis
Description: as §1, §2

Glycine max GmPDH1 variant M219T/N222D, sequence (I1MYY4 1-271 M219T/N222D): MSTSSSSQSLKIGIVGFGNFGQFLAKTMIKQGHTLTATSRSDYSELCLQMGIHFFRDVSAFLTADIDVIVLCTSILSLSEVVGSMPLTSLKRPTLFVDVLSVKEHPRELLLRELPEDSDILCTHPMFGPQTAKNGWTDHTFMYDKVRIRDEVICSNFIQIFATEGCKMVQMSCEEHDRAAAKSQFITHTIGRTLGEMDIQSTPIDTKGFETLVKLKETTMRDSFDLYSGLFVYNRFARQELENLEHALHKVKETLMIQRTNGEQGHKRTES
T7 sequence (K4C5K7 1-272 D224N): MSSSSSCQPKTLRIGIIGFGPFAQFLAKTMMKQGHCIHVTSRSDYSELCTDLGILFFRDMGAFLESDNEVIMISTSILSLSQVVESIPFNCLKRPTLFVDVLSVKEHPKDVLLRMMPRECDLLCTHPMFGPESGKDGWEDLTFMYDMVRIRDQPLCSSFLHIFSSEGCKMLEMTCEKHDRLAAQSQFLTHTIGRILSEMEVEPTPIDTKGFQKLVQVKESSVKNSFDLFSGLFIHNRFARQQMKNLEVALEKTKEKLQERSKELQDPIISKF
Glycine max GmPDH1 variant M219T, sequence (I1MYY4 1-271 M219T): as the sequence (I1MYY4 1-271 M219T/N222D) above, with D222N counted along it
T4 sequence (K4C5K7 1-272): as the sequence (K4C5K7 1-272 D224N) above, with N224D counted along it

## N[C@@H](Cc1ccc(O)cc1)C(=O)O [Tyr, L-Tyrosine]
[1]
  IC50: 32.1 ± 10 mM
[1]; up to 8 mM Tyr in assays
  feedback inhibition by Tyr: insensitive to feedback inhibition by Tyr
[2]
  Tyr inhibition: insensitive to Tyr inhibition
[3]
  IC50: 15.5 ± 0.8 mM
[3]; sensitivity to Tyr
  IC50 (Tyr), in words: in the mM range
[4]; substrate arogenate (1 mM)
  IC50: 2.2 ± 0.5 mM
[4]; substrate prephenate (0.8 mM)
  IC50: 0.6 ± 0.1 mM
[4]; sensitivity to Tyr
  IC50 (Tyr), in words: in the mM range
[5]
  IC50: 12.8 mM
[6]
  inhibition by Tyr: not inhibited by Tyr
[7]; substrate arogenate (1 mM)
  IC50: 4.7 ± 0.4 mM
[7]; substrate prephenate (0.8 mM)
  IC50: 5.3 ± 0.4 mM
[8]; substrate arogenate (1 mM)
  IC50: 5.9 ± 0.5 mM
[8]; substrate prephenate (0.8 mM)
  IC50: 11.1 ± 1.2 mM
[9]
  IC50: 7.7 ± 1.5 mM
[9]; versus wild-type, ADH activity, 0-8 mM Tyr
  sensitivity to Tyr inhibition: significantly less sensitive to Tyr inhibition
[10]
  sensitivity to Tyr inhibition: significantly less sensitive to Tyr inhibition
